{
  "source": "patent US20240115654A1",
  "about": "“INTRAVENOUS ADMINISTRATION OF ENGINEERED ANTIMICROBIAL AMPHIPHILIC PEPTIDES” (priority 2021, published 2024)",
  "key": {"[1]": {"tested_on": "Acinetobacter spp. isolates (n = 104)", "protocol": "(§1) Comparator antibiotics were supplied by Micromyx, and stock solutions were prepared on the first day of testing using solvents recommended by CLSI (1). Stock solutions of all compounds were made at 40× the final testing concentration and stored at −80° C. prior to testing. Information regarding compound source, catalog and lot number, testing concentrations and drug diluent for the comparators and test agent are detailed below in Table 3.\n(§2) The test organisms evaluated in this study consisted of clinical isolates from the Micromyx Repository and reference isolates from the American Type Culture Collection (ATCC; Manassas, VA). The clinical isolates were obtained from USA hospitals. Upon initial receipt at Micromyx, the organisms were sub-cultured onto an appropriate agar medium. Following incubation, colonies were harvested from these plates and cell suspensions prepared and frozen at −80° C. with a cryoprotectant. Prior to testing, the isolates were streaked from frozen vials onto Trypticase Soy Agar with 5% sheep blood (Becton Dickenson [BD]; Sparks, MD; Lot Nos. 7173618, 7166759, 7208688, 72144895, 7228505 and Remel Lenexa, KS Lot No. 212574). Plates were incubated at 35° C. overnight.\n(§3) Mueller Hinton II broth (MHB II; BD; Lot Nos. 6258541 and 7143896) was used for MIC testing of aerobic organisms.\n(§4) MIC values were determined using a broth microdilution procedure described by CLSI (1, 3). Automated liquid handlers (Multidrop 384, Labsystems, Helsinki, Finland; Biomek 2000 and Biomek FX, Beckman Coulter, Fullerton CA) were used to conduct serial dilutions and liquid transfers.\n(§5) To prepare the drug mother plates, which would provide the serial drug dilutions for the replicate daughter plates, the wells of columns 2-12 of standard 96-well microdilution plates (Costar 3795) were filled with 150 μl of the designated diluent for each row of drug. The test articles and comparator compounds (300 μl at 40× the highest concentration to be tested) were dispensed into the appropriate wells in column 1. The Biomek 2000 was then used to make 2-fold serial dilutions in the mother plates from column 1 through column 11. The wells of Column 12 contained no drug and served as the organism growth control wells for the assay.\n(§6) The daughter plates were loaded with 185 μL per well of MHB II using the Multidrop 384. The daughter plates were completed on the Biomek FX instrument which transferred 5 μL of drug solution from each well of a mother plate to the corresponding well of each daughter plate in a single step. A standardized inoculum of each test organism was prepared per CLSI methods (1). The inoculum for each organism was dispensed into sterile reservoirs divided by length (Beckman Coulter), and the Biomek 2000 was used to inoculate the plates. Daughter plates were placed on the Biomek 2000 work surface in reverse orientation so that inoculation took place from low to high drug concentration.\n(§7) Plates were stacked 3-4 high, covered with a lid on the top plate, placed in plastic bags, and incubated at 35° C. for 16 to 20 hrs. Following incubation, the microplates were removed from the incubator and viewed from the bottom using a plate viewer. […] The MIC was read and recorded as the lowest concentration of drug that inhibited visible growth of the organism.\n(§8) Clinical breakpoints to determine percent resistance within a given organism group were obtained from CLSI (3), with the exception of colistin for K. pneumoniae, Enterobacter spp., and E. coli, which are only available from EUCAST."}, "[2]": {"tested_on": "Escherichia coli isolates (n = 101)", "protocol": "as §1, §2, §3, §4, §5, §6, §7, §8"}, "[3]": {"tested_on": "Klebsiella pneumoniae isolates (n = 101)", "protocol": "as §1, §2, §3, §4, §5, §6, §7, §8"}, "[4]": {"tested_on": "Pseudomonas aeruginosa isolates (n = 109)", "protocol": "as §1, §2, §3, §4, §5, §6, §7, §8"}, "[5]": {"tested_on": "Enterobacter spp. isolates (Enterobacter aerogenes and E. cloacae, n = 102)", "test": "organism not typed", "protocol": "as §1, §2, §3, §4, §5, §6, §7, §8"}, "[6]": {"conditions": "IV infusion 1 mg/kg, Group 1, mean of rats"}, "[7]": {"conditions": "IV infusion 5 mg/kg, Group 2, mean of rats"}, "[8]": {"conditions": "IV infusion 10 mg/kg, Group 4, mean of rats"}, "[9]": {"conditions": "Pseudomonas aeruginosa (n = 109)"}, "[10]": {"conditions": "Klebsiella pneumoniae (n = 101)"}},
  "note": "Where two headings read alike, the source gives them in different places. Peptide text beside a SMILES is read from it.",
  "data": [
    {"molecule": "CC(C)[C@H](NC(=O)[C@H](Cc1c[nH]c2ccccc12)NC(=O)[C@H](CCCNC(=N)N)NC(=O)[C@H](CCCNC(=N)N)NC(=O)[C@@H](NC(=O)[C@@H](NC(=O)[C@H](CCCNC(=N)N)NC(=O)[C@@H](NC(=O)[C@@H](NC(=O)[C@H](CCCNC(=N)N)NC(=O)[C@H](CCCNC(=N)N)NC(=O)[C@H](Cc1c[nH]c2ccccc12)NC(=O)[C@@H](NC(=O)[C@H](CCCNC(=N)N)NC(=O)[C@H](CCCNC(=N)N)NC(=O)[C@@H](NC(=O)[C@H](CCCNC(=N)N)NC(=O)[C@H](CCCNC(=N)N)NC(=O)[C@@H](NC(=O)[C@H](Cc1c[nH]c2ccccc12)NC(=O)[C@H](CCCNC(=N)N)NC(=O)[C@@H](N)CCCNC(=N)N)C(C)C)C(C)C)C(C)C)C(C)C)C(C)C)C(C)C)C(C)C)C(=O)N[C@@H](CCCNC(=N)N)C(=O)N[C@@H](CCCNC(=N)N)C(N)=O", "note": "[SEQ ID NO: 1] (H-RRWVRRVRRVWRRVVRVVRRWVRR-NH2)", "values": [
      {"measurement": "AUCinf_D", "setting": "[6]", "value": 787, "unit": "kg·ng·h/mL/ng"},
      {"measurement": "CL", "setting": "[6]", "value": 21.87, "unit": "mL/min/kg"},
      {"measurement": "Extrapolated", "setting": "[6]", "value": 3.28, "unit": "%"},
      {"measurement": "Vss", "setting": "[6]", "value": 3.401, "unit": "L/kg"},
      {"measurement": "Vz", "setting": "[6]", "value": 10.884, "unit": "L/kg"},
      {"measurement": "AUCinf_D", "setting": "[7]", "value": 5158, "unit": "kg·ng·h/mL/ng"},
      {"measurement": "Extrapolated", "setting": "[7]", "value": 0.424, "unit": "%"},
      {"measurement": "Vss", "setting": "[7]", "value": 0.229, "unit": "L/kg"},
      {"measurement": "Vz", "setting": "[7]", "value": 1.533, "unit": "L/kg"},
      {"measurement": "AUCinf_D", "setting": "[8]", "value": 8049, "unit": "kg·ng·h/mL/ng"},
      {"measurement": "CL", "setting": "[8]", "value": 2.12, "unit": "mL/min/kg"},
      {"measurement": "Extrapolated", "setting": "[8]", "value": 0.186, "unit": "%"},
      {"measurement": "Vz", "setting": "[8]", "value": 0.749, "unit": "L/kg"},
      {"measurement": "Mode (MIC)", "setting": "[1]", "value": 4, "unit": "µg/mL"},
      {"measurement": "MIC90", "setting": "[1]; Acinetobacter colistin-resistant, n=21", "value": 16, "unit": "µg/mL"},
      {"measurement": "MIC90", "setting": "[1]; Acinetobacter spp. (n = 104)", "value": 16, "unit": "µg/mL"},
      {"measurement": "Mode (MIC)", "setting": "[2]; isolates (n = 101)", "value": 2, "unit": "µg/mL"},
      {"measurement": "MIC90", "setting": "[3]; K. pneumoniae colistin-resistant, n=28", "value": 16, "unit": "µg/mL"},
      {"measurement": "MIC90", "setting": "[4]; P. aeruginosa colistin-resistant, n=8", "value": 16, "unit": "µg/mL"},
      {"measurement": "MIC90", "setting": "[4]; [9]", "value": 16, "unit": "µg/mL"},
      {"measurement": "Mode (MIC)", "setting": "[5]", "value": 16, "unit": "µg/mL"}
    ]},
    {"molecule": "Colistin [reference compound]", "values": [
      {"measurement": "MIC50", "setting": "[1]; Acinetobacter spp. (n = 104)", "value": 0.25, "unit": "µg/mL"},
      {"measurement": "MIC90", "setting": "[1]; Acinetobacter spp. (n = 104)", "value": ">32", "unit": "µg/mL"},
      {"measurement": "Mode (MIC)", "setting": "[1]; Acinetobacter spp. (n = 104)", "value": 0.25, "unit": "µg/mL"},
      {"measurement": "% R (percent of isolates resistant)", "setting": "[1]; Acinetobacter spp. (n = 104), CLSI breakpoints", "value": 20.2, "unit": "%"},
      {"measurement": "MIC50", "setting": "[2]; Escherichia coli (n = 101)", "value": 0.12, "unit": "µg/mL"},
      {"measurement": "MIC90", "setting": "[2]; Escherichia coli (n = 101)", "value": 0.12, "unit": "µg/mL"},
      {"measurement": "MIC range", "setting": "[2]; Escherichia coli (n = 101)", "value": "≤0.03-0.5 ^ μg/mL"},
      {"measurement": "Mode (MIC)", "setting": "[2]; Escherichia coli (n = 101)", "value": 0.12, "unit": "µg/mL"},
      {"measurement": "% R (percent of isolates resistant)", "setting": "[2]; Escherichia coli (n = 101), CLSI breakpoints, colistin EUCAST", "value": 0, "unit": "%"},
      {"measurement": "MIC50", "setting": "[3]; [10]", "value": 0.12, "unit": "µg/mL"},
      {"measurement": "MIC90", "setting": "[3]; [10]", "value": 32, "unit": "µg/mL"},
      {"measurement": "Mode (MIC)", "setting": "[3]; [10]", "value": 0.12, "unit": "µg/mL"},
      {"measurement": "% R (percent of isolates resistant)", "setting": "[3]; Klebsiella pneumoniae (n = 101), CLSI breakpoints, colistin EUCAST", "value": 27.7, "unit": "%"},
      {"measurement": "MIC50", "setting": "[4]; [9]", "value": 0.5, "unit": "µg/mL"},
      {"measurement": "MIC90", "setting": "[4]; [9]", "value": 1, "unit": "µg/mL"},
      {"measurement": "Mode (MIC)", "setting": "[4]; [9]", "value": 0.5, "unit": "µg/mL"},
      {"measurement": "% R (percent of isolates resistant)", "setting": "[4]; Pseudomonas aeruginosa (n = 109), CLSI breakpoints", "value": 7.3, "unit": "%"},
      {"measurement": "MIC50", "setting": "[5]; Enterobacter spp. (n = 102)", "value": 0.12, "unit": "µg/mL"},
      {"measurement": "MIC90", "setting": "[5]; Enterobacter spp. (n = 102)", "value": 0.25, "unit": "µg/mL"},
      {"measurement": "Mode (MIC)", "setting": "[5]; Enterobacter spp. (n = 102)", "value": 0.12, "unit": "µg/mL"},
      {"measurement": "% R (percent of isolates resistant)", "setting": "[5]; Enterobacter spp. (n = 102), CLSI breakpoints, colistin EUCAST", "value": 5.8, "unit": "%"}
    ]}
  ]
}
